Measured values reported in patent publication US9095564B2, “von Willebrand factor or factor VIII and von Willebrand factor for the treatment of coagulopathy induced by inhibitors of thrombocytes” (CSL Behring GmbH, priority 2008, dated 2015).

Tests used:
[1] = test system: thrombin generation in platelet rich plasma; test: Thrombin generation/thrombogram in platelet rich plasma, rat clopidogrel model; assay type: in vivo; details: clopidogrel treatment, or single agent given to clopidogrel treated rats
Description: When Haemate® P was administered to clopigogrel treated rats an earlier onset of thrombin formation was observed but no increase of peak thrombin.

clopidogrel treated rats = test: Tail tip bleeding (total blood loss) in the rat clopidogrel model; assay type: in vivo
Description: The study was designed as an open seven-armed trial with 115 rats (+60 platelet donors).
3.2 mL blood were mixed with 0.8 mL trisodium citrate. Blood samples were pooled and centrifuged at 900 RPM for 30 minutes. Platelet-rich-plasma was collected into a fresh tube and centrifugated at 1800-2000 RPM for 15-17 minutes. The pellet was gently resuspended in Tyrode HEPES+0.3% BSA. Depending on platelet yield animals received 1.6−3×10^9 washed platelets intravenous into the tail vein.
Tablets were dissolved in isotonic saline and administered by gavage. On day 2 freshly prepared rat platelets were transfused into the tail vein by a bolus. Haemate® P was administered directly prior to platelet transfusion. 15 minutes after administration of platelets, blood loss was determined. The volume of total blood loss was calculated by measuring the HGB present in the saline used for submersion of the tail tip. The tail tip cut was performed with a scalpel knife under deep anesthesia, removing about 3 mm of the tail tip. Immediately upon lesion, the tail tip was submerged in saline, kept at the physiological body temperature of the rats using a water bath. The observation period to monitor bleeding was 30 min.
Blood loss was determined as the total blood loss (t=0-30 min) and analyzed by two-sided exact Wilcoxon test, box plot and Kaplan-Meier plot.

[2] = Group 1: Plavix/Isotonic saline, t=0-30 min

Total blood loss, Maximum (clopidogrel treated rats; [2]): 2345 µL | Total blood loss, Mean (clopidogrel treated rats; [2]): 1404.2 µL | Total blood loss, Median (clopidogrel treated rats; [2]): 1466 µL | Total blood loss, Minimum (clopidogrel treated rats; [2]): 265 µL | total blood loss (result in words) (clopidogrel treated rats; oral treatment with clopidogrel 2.5 mg/kg day 0 and day 1): increased total blood loss
Compound: COC(=O)[C@H](c1ccccc1Cl)N1CCc2sccc2C1 [Plavix, clopidogrel]
onset of thrombin formation [1]: later onset | peak thrombin [1]: decrease in peak thrombin
